Each molecule was assayed on KMO (assay: KMO activity assay: L-Kynurenine hydroxylation to 3-Hydroxy-Kynurenine, quantified by LC/MS). Details: compound at 10 uM; footnote: some portion of activity of amides may be due to contribution of acid precursor.
Format: biochemical
Description: A generalized procedure for monitoring L-Kynurenine (KYN) hydroxylation to form product 3-Hydroxy-Kynurenine (3OH-KYN) by LC/MS is described below. Product is quantified by multiple reaction monitoring using MS.
A method of monitoring L-Kynurenine (KYN) hydroxylation to form product 3-Hydroxy-Kynurenine (3OH-KYN) by LC/MS is described below. Product is quantified by multiple reaction monitoring.
• Compound: Stock concentrations: 10 mM in 100% DMSO • Enzyme: KMO enzyme prepared at Evotec via mitochondria isolation from CHO-GST HIS KMO cells • Substrate: L-Kynurenine (Sigma: Cat #K3750) • [stock concentration: 10 mM in 100 mM potassium phosphate buffer, pH 7.4]
A method of monitoring L-Kynurenine (KYN) hydroxylation to form 3-Hydroxy-Kynurenine (3OH-KYN) by LC/MS is described. Product is quantified by multiple reaction monitoring (MRM method).
In the case of CC1(C)CC(C(N)=O)C(C)(C)N1C(=O)c1cc(-c2ccc(Cl)c(Cl)c2)ncn1 (stereo not drawn) [1-[6-(3,4-Dichloro-phenyl)-pyrimidine-4-carbonyl]-2,2,5,5-tetramemyl-pyrrolidine-3-carboxylic acid amide], the “% Inhibition at 10 uM” value is reported as 98.27%.
With NC(=O)C1CCN(C(=O)c2cc(-c3ccc(Cl)c(Cl)c3)ncn2)C1 (stereo not drawn) [1-[6-(3,4-Dichloro-phenyl)-pyrimidine-4-carbonyl]-pyrrolidine-3-carboxylic acid amide] the “% Inhibition at 10 uM” value was 101.835%.
With O=C(NC1CC1)C1CCN(C(=O)c2cc(-c3ccc(Cl)c(Cl)c3)ncn2)C1 (stereo not drawn) [1-[6-(3,4-Dichloro-phenyl)-pyrimidine-4-carbonyl]-pyrrolidine-3-carboxylic acid cyclopropylamide] the “% Inhibition at 10 uM” value was 91.815%.
In the case of CNC(=O)C1CCN(C(=O)c2cc(-c3ccc(Cl)c(Cl)c3)ncn2)C1 (stereo not drawn) [1-[6-(3,4-Dichloro-phenyl)-pyrimidine-4-carbonyl]-pyrrolidine-3-carboxylic acid methylamide], the “% Inhibition at 10 uM” value is reported as 83.065%.
For O=C(O)C1CCN(C(=O)c2cc(-c3ccc(Cl)c(Cl)c3)ncn2)C1 (stereo not drawn) [1-[6-(3,4-dichloro-phenyl)-pyrimidine-4-carbonyl]-pyrrolidine-3-carboxylic acid], the “% Inhibition at 10 uM” value was 101.855%.
CON=C(C)c1cc(-c2cccc(Cl)c2)ncn1 [1-[6-(3-Chloro-phenyl)-pyrimidin-4-yl]-ethanone O-methyl-oxime] was tested, and the “% Inhibition at 10 uM” value was 102.2%.
For CC(=O)c1cc(-c2cccc(Cl)c2)ncn1 [1-[6-(3-Chloro-phenyl)-pyrimidin-4-yl]-ethanone], the “% Inhibition at 10 uM” value was 97.49%.
For O=C(CCN1CCCC1)N1CCN(C(=O)c2cc(-c3ccc(Cl)c(Cl)c3)ncn2)CC1 [1-{4-[6-(3,4-Dichloro-phenyl)-pyrimidine-4-carbonyl]-piperazin-1-yl}-3-pyrrolidin-1-yl-propan-1-one], the “% Inhibition at 10 uM” value was 68.48%.
CC(=O)N1CCN(C(=O)c2cc(-c3ccc(Cl)c(Cl)c3)ncn2)CC1 [1-{4-[6-(3,4-Dichloro-phenyl)-pyrimidine-4-carbonyl]-piperazin-1-yl}-ethanone] was tested, and the “% Inhibition at 10 uM” value was 100.06%.
With O=C(c1cc(-c2ccc(Cl)c(Cl)c2)ncn1)N1CCN2C(=O)CCC2C1 (stereo not drawn) [2-[6-(3,4-Dichloro-phenyl)-pyrimidine-4-carbonyl]-hexahydro-pyrrolo[1,2-a]pyrazin-6-one] the “% Inhibition at 10 uM” value was 97.22%.
For CC(C)COC(=O)c1cc(-c2ccc(Cl)c(Cl)c2)ncn1 [2-methylpropyl 6-(3,4-dichlorophenyl)pyrimidine-4-carboxylate], the “% Inhibition at 10 uM” value was 100%.
For O=C(NS(=O)(=O)c1cccc(Cl)c1)c1cc(-c2ccc(Cl)c(Cl)c2)ncn1 [3-Chloro-N-[6-(3,4-dichloro-phenyl)-pyrimidine-4-carbonyl]-benzenesulfonamide], the “% Inhibition at 10 uM” value was 102.26%.
O=C(NS(=O)(=O)c1cccc(Cl)c1)c1cc(-c2cccc(Cl)c2)ncn1 [3-Chloro-N-[6-(3-chloro-phenyl)-pyrimidine-4-carbonyl]-benzenesulfonamide] was tested, and the “% Inhibition at 10 uM” value was 101.57%.
In the case of O=C1OCc2c1ncnc2-c1ccc(Cl)c(Cl)c1 [4-(3,4-dichloro-phenyl)-5H-furo[3,4-d]pyrimidin-7-one], the “% Inhibition at 10 uM” value is reported as 94%.
With O=C1CN(C(=O)c2cc(-c3ccc(Cl)c(Cl)c3)ncn2)CCN1CCN1CCOCC1 [4-[6-(3,4-Dichloro-phenyl)-pyrimidine-4-carbonyl]-1-(2-morpholin-4-yl-ethyl)-piperazin-2-one] the “% Inhibition at 10 uM” value was 98.7%.
For O=C1CN(C(=O)c2cc(-c3ccc(Cl)c(Cl)c3)ncn2)CCN1CCN1CCCC1 [4-[6-(3,4-Dichloro-phenyl)-pyrimidine-4-carbonyl]-1-(2-pyrrolidin-1-yl-ethyl)-piperazin-2-one], the “% Inhibition at 10 uM” value was 99.275%.
With O=C1CN(C(=O)c2cc(-c3ccc(Cl)c(Cl)c3)ncn2)CCN1CC1CCOCC1 [4-[6-(3,4-Dichloro-phenyl)-pyrimidine-4-carbonyl]-1-(tetrahydro-pyran-4-ylmethyl)-piperazin-2-one] the “% Inhibition at 10 uM” value was 99.91%.
In the case of CN1CCN(C(=O)c2cc(-c3ccc(Cl)c(Cl)c3)ncn2)CC1=O [4-[6-(3,4-Dichloro-phenyl)-pyrimidine-4-carbonyl]-1-methyl-piperazin-2-one], the “% Inhibition at 10 uM” value is reported as 87.44%.
For CC1C(=O)NCCN1C(=O)c1cc(-c2ccc(Cl)c(Cl)c2)ncn1 (stereo not drawn) [4-[6-(3,4-Dichloro-phenyl)-pyrimidine-4-carbonyl]-3-methyl-piperazin-2-one], the “% Inhibition at 10 uM” value was 97.9%.
In the case of O=C1CN(C(=O)c2cc(-c3ccc(Cl)c(Cl)c3)ncn2)CCN1 [4-[6-(3,4-Dichloro-phenyl)-pyrimidine-4-carbonyl]-piperazin-2-one], the “% Inhibition at 10 uM” value is reported as 101.6%.
With O=C1CN(C(=O)c2cc(-c3ccc(F)c(F)c3)ncn2)CCN1 [4-[6-(3,4-Difluoro-phenyl)-pyrimidine-4-carbonyl]-piperazin-2-one] the “% Inhibition at 10 uM” value was 100.995%.
For O=C1CN(C(=O)c2cc(-c3cccc(Br)c3)ncn2)CCN1 [4-[6-(3-Bromo-phenyl)-pyrimidine-4-carbonyl]-piperazin-2-one], the “% Inhibition at 10 uM” value was 96.625%.
In the case of O=C1CN(C(=O)c2cc(-c3ccc(F)c(Cl)c3)ncn2)CCN1 [4-[6-(3-Chloro-4-fluoro-phenyl)-pyrimidine-4-carbonyl]-piperazin-2-one], the “% Inhibition at 10 uM” value is reported as 100.85%.
In the case of O=C(N[C@H]1CCCc2ccccc21)c1cc(-c2ccc(Cl)c(Cl)c2)ncn1 [6-(3,4-Dichloro-phenyl)-pyrimidine-4-carboxylic acid (1,2,3,4-tetrahydro-naphthalen-1S-yl)-amide], the “% Inhibition at 10 uM” value is reported as 95.92%.
For O=C(NC1CN2CCC1CC2)c1cc(-c2ccc(Cl)c(Cl)c2)ncn1 (stereo not drawn) [6-(3,4-Dichloro-phenyl)-pyrimidine-4-carboxylic acid (1-aza-bicyclo[2.2.2]oct-3-yl)-amide], the “% Inhibition at 10 uM” value was 100.905%.
In the case of Cl.O=C(NCC12CCN(CC1)CC2)c1cc(-c2ccc(Cl)c(Cl)c2)ncn1 [6-(3,4-Dichloro-phenyl)-pyrimidine-4-carboxylic acid (1-aza-bicyclo[2.2.2]oct-4-ylmethyl)-amide hydrochloride salt], the “% Inhibition at 10 uM” value is reported as 65.78%.
In the case of Cn1nc(NC(=O)c2cc(-c3ccc(Cl)c(Cl)c3)ncn2)c2ccccc21 [6-(3,4-Dichloro-phenyl)-pyrimidine-4-carboxylic acid (1-methyl-1H-indazol-3-yl)-amide], the “% Inhibition at 10 uM” value is reported as 93.95%.
With Cn1ccc(NC(=O)c2cc(-c3ccc(Cl)c(Cl)c3)ncn2)n1 [6-(3,4-Dichloro-phenyl)-pyrimidine-4-carboxylic acid (1-methyl-1H-pyrazol-3-yl)-amide] the “% Inhibition at 10 uM” value was 100.05%.
In the case of O=C(NC1(c2ccccc2)CC1)c1cc(-c2ccc(Cl)c(Cl)c2)ncn1 [6-(3,4-Dichloro-phenyl)-pyrimidine-4-carboxylic acid (1-phenyl-cyclopropyl)-amide], the “% Inhibition at 10 uM” value is reported as 96.68%.
With CC(NC(=O)c1cc(-c2ccc(Cl)c(Cl)c2)ncn1)C1CCNCC1.Cl (stereo not drawn) [6-(3,4-Dichloro-phenyl)-pyrimidine-4-carboxylic acid (1-piperidin-4-yl-ethyl)-amide hydrochloride salt] the “% Inhibition at 10 uM” value was 85.09%.

— patent publication US9428464B2, “Kynurenine-3-monooxygenase inhibitors, pharmaceutical compositions, and methods of use thereof” (CHDI Foundation, Inc., priority 2011, dated 2016)
